{
  "source": "patent US7157477B2",
  "about": "“Aliphatic amino-substituted demethoxylated hypocrellins and their synthesis” (Altachem Pharma Ltd., priority 2000, dated 2007)",
  "key": {"[1]": {"settings": "in vivo; cited from earlier work"}, "HeLa cells [2]": {"system": "HeLa cells", "experiment": "Sensitizer localization by fluorescence microscopy", "assay_type": "cell-based", "settings": "4 μM; HB 15 min, 2-BA-2-DMHB 6 h", "procedure": "Cells growing on glass were incubated in DMEM with 4 μM HB for 15 min or with 4 μM 2-BA-2-DMHB for 6 h at 37° C. Fluorescence was visualized by Nikon FXA microscope to assess sites of sensitizer location (excitation=400–450 nm, emission=600–650 nm)."}, "HeLa cells [3]": {"system": "HeLa cells", "experiment": "DNA agarose gel electrophoresis (DNA ladder)", "assay_type": "cell-based", "settings": "for DNA ladder, photosensitizer alone: 4 μM incubation, no light; for DNA ladder at early times: 3 and 6 h post-irradiation; for DNA ladder after photosensitization: 24 h after treatment at LD70 and LD90", "quoted_text": "Stock sensitizer-DMSO solutions were diluted with DMEM containing 1% FBS. […] The cells were detached using 0.2% trypsin/0.5 mM EDTA solution in PBS and centrifuge-washed to remove unbound dyes. The cells were then transferred to 35-mm dishes (Costar)) 1 ml inch dish containing 3×10s cells, and irradiated with different doses of light. […] Immediately after irradiation, 2 ml DMEM containing 7.5% FBS was added to each dish.\nThe DNA was extracted as described previously [18] with some modification. Cells (2×106) were detached with the use of 0.2% trypsin/0.5 mM EDTA solution washed with PBS and pelleted by centrifugation. The cell pellets were suspended in lysis buffer consisting of 0.5% sodium dodecyl sulfate (SDS), 2 mM EDTA, 100 mg/ml proteinase K, and SO mM Tris-HC buffer (pH 8.0). After 24 h lysis at 37° C., the DNA was extracted with an equal volume of water-saturated phenol/chloroform/isoamyl alcohol (25:24:1). The aqueous phase was collected and DNA was precipitated with 0.5 volume ammonium acetate and 2.5 volumes cold absolute ethanol, and stored overnight at −20° C. The DNA was dissolved in TE (0.5 M EDTA in 1 M Tris-HCl buffer, pH 8.0) and incubated with DNase-free RNase A (100 mg/ml) at 37° C. for 1 h. The samples were electrophoresed for 3 h at 60 V in 1.5% agarose gel containing 0.5 μg ml^−1 ethidium bromide and visualized by UV transillumination."}, "HeLa cells [4]": {"system": "HeLa cells", "settings": "for photopotentiation factor (LD50 dark / LD50 with 24 J cm−2 red light): MTT assay", "quoted_text": "Stock sensitizer-DMSO solutions were diluted with DMEM containing 1% FBS. […] The cells were detached using 0.2% trypsin/0.5 mM EDTA solution in PBS and centrifuge-washed to remove unbound dyes. The cells were then transferred to 35-mm dishes (Costar)) 1 ml inch dish containing 3×10s cells, and irradiated with different doses of light. […] Immediately after irradiation, 2 ml DMEM containing 7.5% FBS was added to each dish. Then a portion of the cells was assessed for survival as follows and the rest were incubated in the medium until they could be checked for nucleus staining, DNA fragmentation and flow cytometry analysis.\nCell survival was estimated by the MTT assay [11,15,16]. PDT-treated cells were transferred into flat-bottomed 96-well plates (Costar) 100 μl in each well containing 1×10^4 cells and the cells were incubated at 37° C. in a. CO2, incubator for 20 h. Viability was determined by adding 10 μl MTT (10 mg ml^−1) to each well, and the mixture was incubated for 4 h at 37° C. Culture medium was then replaced with dimethylsulfoxide to dissolve the formazan crystals. […] Samples were measured in 12 replicates and each experiment was repeated at least twice. Survival of PDT-treated cells was normalized against cells incubated with photosensitizer alone."}, "HeLa cells [5]": {"system": "HeLa cells", "experiment": "Flow cytometric detection of DNA fragmentation (PI staining)", "assay_type": "cell-based", "settings": "for induction of apoptosis: evidenced by Hoechst staining, gel electrophoresis and flow cytometry; for hypoploid cell population: photosensitized cells", "quoted_text": "Stock sensitizer-DMSO solutions were diluted with DMEM containing 1% FBS. […] The cells were detached using 0.2% trypsin/0.5 mM EDTA solution in PBS and centrifuge-washed to remove unbound dyes. The cells were then transferred to 35-mm dishes (Costar)) 1 ml inch dish containing 3×10s cells, and irradiated with different doses of light. The light source was a Red Light Treatment Instrument (Institute of Electronic Academia Sinica, China), Its total power output, more than 90% at 600–700 nm was 50 mW cm^2 at the position of the, samples, measured with BTY-8204 radiometer (Beijing Institute of Solar Energy, China). Immediately after irradiation, 2 ml DMEM containing 7.5% FBS was added to each dish. Then a portion of the cells was assessed for survival as follows and the rest were incubated in the medium until they could be checked for nucleus staining, DNA fragmentation and flow cytometry analysis.\nA propidium iodide (PI) staining technique was used to assess the status of cellular DNA [19]. Cells were washed twice with ice-cold PBS and then permeabilized and fixed in 80% ethanol at 4° C. for 24 h. Cells were washed twice with PBS and suspended in PBS with RNase A (100 mg/ml) and incubated at 37° C. for 30 min. At this point the PI solution (10 mg/ml in PBS) was added to the cells in RNase solution, and the incubation was continued for 30 min at 4° C. After that, the cells were analyzed by Epics XL flow cytometer (Coulter, USA)."}, "HeLa cells [6]": {"system": "HeLa cells", "experiment": "Dark toxicity, MTT assay", "assay_type": "cell-based", "settings": "HB 15 min, 2-BA-2-DMHB 6 h; highest concentration tested 100 μM", "procedure": "The dark toxicity characteristic of each compound was assessed separately following a similar procedure for cell exposure to graded doses of […] for 15 min or 2-BA-2-DMHB for 6 h. Precautions were taken to avoid exposure of the cells to light throughout the period when'the cells were exposed to, or contained, photosensitizers."}, "[7]": {"experiment": "Superoxide anion radical generation by DMPO spin-trapping ESR", "assay_type": "physicochemical", "settings": "in DMSO, relative to HB", "procedure": "(§1) Singlet oxygen yields were determined as previously reported by the DPA bleaching method. The electron spin resonance (ESR) measurement of, spin trapping of DMPO was used to determine the generation of O2 by hypocrellins.\nDMPO spin-trapping ESR measurement was used here to verify the formation of superoxide anion radical generated by photosensitization of HB and 2-BA-2-DMHB."}, "HeLa cells [8]": {"system": "HeLa cells", "experiment": "Hoechst 33342 nuclear staining for apoptotic nuclei", "assay_type": "cell-based", "procedure": "Treated and control cells were incubated in DMEM with 0.5% FBS for 24 h at 37° C., then collected by detachment and centrifugation and incubated in a growth medium (FBS free) containing 5 μM H0342 for 5 min at 37° C. Nuclear fragmentation was assessed by fluorescence microscopy using Nikon FxA microscope. The EX wavelength was 330–380 nm with EM monitored at 420–450 nm."}, "[9]": {"experiment": "Absorption spectra of photosensitizers in chloroform", "assay_type": "physicochemical", "settings": "for log6 at first band λmax / log6 at second band λmax / log6 at third band λmax / λmax (nm), first band / λmax (nm), second band / λmax (nm), third band: in chloroform"}, "HeLa cells [10]": {"system": "HeLa cells", "experiment": "Distribution ratio (cellular uptake by fluorescence)", "assay_type": "cell-based", "settings": "for distribution ratio [Sen/g cells]/[Sen/ml medium]: extra-cellular drug 0 to 5 μM, HB 15 min, 2-BA-2-DMHB 6 h, 37° C.", "procedure": "HeLa cells were maintained as monolayer culture in DMEM containing 5% FBS and antibiotics PS (80 U/ml penicillin and 100 μg/ml streptomycin) at 37° C. in a humidified 5% CO2 incubator.\nThe distribution ratio or the photosensitizer is defined as [Sen/g cells]/[Sen/ml medium]. The values were measured as described previously. Exponentially growing cells were incubated in DMEM with HB for 15 min or with 2-BA-2-DMHB for 6 h at 37° C., ranging from 0 to 5 μM. […] The washed pellets (2×10^6) were dispersed in 3 ml of 10 mM Triton X-100 detergent. These solutions were excited at 460 nm and the fluorescence emission spectra were acquired using Hitachi-F4500 fluorescence spectrophotometer. Fluorescence at 610 nm was determined, corrected for the fluorescence of control (drug-free) sample, and compared with a standard fluorescence-intensity curve prepared with HB and 2-BA-2-DMHB solutions of known concentration."}, "AIDS": {"system": "AIDS", "settings": "cited from earlier work"}, "[11]": {"experiment": "Singlet oxygen yield by DPA bleaching method", "assay_type": "physicochemical", "settings": "in DMSO", "procedure": "as §1"}, "[12]": {"system": "EMT6 Ed mouse tumor cells", "settings": "24 J cm−2; Estey's results [8]; cited from earlier work"}},
  "note": "“Also recorded” adds a separate entry of the source.",
  "data": [
    {"smiles": "COc1c(O)c2c(=O)cc(OC)c3c4c(OC)cc(=O)c5c(O)c(OC)c6c(c(c1CC(C)(O)C6C(C)=O)c23)c54", "note": "(stereo not drawn) [hypocrellin A, 3,10-dihydroxyl-4,9-dione-1,12-(2′-hydroxyl-2′-methyl-3′-actyl)propilidene(1′,3′)-2,6,7,11-tetramethoxyl-perylene]", "values": [
      {"measurement": "toxicity in animals", "setting": "[1]", "value": "low toxicity"}
    ]},
    {"smiles": "CCCCNc1c(O)c2c(=O)cc(OC)c3c4c(OC)cc(=O)c5c(O)c(OC)c6c(c(c1C(C(C)=O)=C(C)C6)c23)c54", "note": "[Example 2-BA-2-DMHB, 2-butylamino-2-demethoxy-hypocrellin B]", "values": [
      {"measurement": "sites of sensitizer localization", "setting": "HeLa cells [2]", "value": "primarily at ER; also recorded: mainly localized at endoplasmic reticulum"},
      {"measurement": "DNA ladder, photosensitizer alone", "setting": "HeLa cells [3]", "value": "No DNA ladder was observed"},
      {"measurement": "DNA ladder at early times", "setting": "HeLa cells [3]", "value": "No obvious DNA ladder was detected"},
      {"measurement": "DNA ladder after photosensitization", "setting": "HeLa cells [3]", "value": "characteristic DNA ladder observed"},
      {"measurement": "photopotentiation factor (LD50 dark / LD50 with 24 J cm−2 red light)", "setting": "HeLa cells [4]", "value": "more than 250 fold"},
      {"measurement": "photopotentiation relative to HB", "setting": "HeLa cells [4]; in vitro", "value": "over 25 fold"},
      {"measurement": "concentration causing 50% cytotoxicity at light dose of 24 J cm−2", "setting": "HeLa cells [4]; red light 24 J cm−2", "value": "0.25–0.5 FM"},
      {"measurement": "induction of apoptosis", "setting": "HeLa cells [5]", "value": "induced apoptosis"},
      {"measurement": "hypoploid cell population", "setting": "HeLa cells [5]; LD90", "value": "appearance of hypoploid cell population"},
      {"measurement": "speed of apoptosis induction", "setting": "HeLa cells [5]; post-irradiation, LD90", "value": "induced apoptosis more quickly than HB"},
      {"measurement": "LD50 in the dark", "setting": "HeLa cells [6]", "value": "more than 100 μM"},
      {"measurement": "Relative quantum yields (O2−)", "setting": "[7]; listed as 2-BA-2-DMHD", "value": 2.7},
      {"measurement": "nuclear morphology in the absence of light irradiation", "setting": "HeLa cells [8]; 4 μM, 6 h, dark control", "value": "remained intact"},
      {"measurement": "apoptotic nuclei after photosensitization", "setting": "HeLa cells [8]; LD70, 24 h post-irradiation", "value": "apoptotic nuclei were detected"},
      {"measurement": "extinction coefficient at 583 nm relative to HB at 548 nm", "setting": "[9]", "value": 2.5, "unit": "fold"},
      {"measurement": "extinction coefficient at 621 nm relative to HB at 580 nm", "setting": "[9]", "value": "over 3.8 fold"},
      {"measurement": "log6 at first band λmax", "setting": "[9]", "value": 4.06},
      {"measurement": "log6 at second band λmax", "setting": "[9]", "value": 4.09},
      {"measurement": "log6 at third band λmax", "setting": "[9]", "value": 4.10},
      {"measurement": "λmax (nm), first band", "setting": "[9]", "value": 463, "unit": "nm"},
      {"measurement": "λmax (nm), second band", "setting": "[9]", "value": 583, "unit": "nm"},
      {"measurement": "λmax (nm), third band", "setting": "[9]", "value": 621, "unit": "nm"},
      {"measurement": "intra-cellular level relative to HB", "setting": "HeLa cells [10]; equimolar levels of the drugs", "value": "approximately two fold as much as HB; also recorded: approximately two times as much as that of HB"},
      {"measurement": "distribution ratio [Sen/g cells]/[Sen/ml medium]", "setting": "HeLa cells [10]", "value": "107.2±4.3"}
    ]},
    {"smiles": "COc1c(O)c2c(=O)cc(OC)c3c4c(OC)cc(=O)c5c(O)c(OC)c6c(c(c1CC(C)=C6C(C)=O)c23)c54", "note": "[HB, 3,10-dihydroxyl-4,9-dione-1,12-(2′-methyl-3′-actyl-2′,3′-dehydro)propilidene(1′,3′)-2,6,7,11-tetramethoxyl-perylene, reference compound]", "values": [
      {"measurement": "anti-AIDS action", "setting": "AIDS", "value": "distinct anti-AIDS action"},
      {"measurement": "sites of sensitizer localization", "setting": "HeLa cells [2]", "value": "prominent lysosomal uptake, and endoplasmic reticulum (ER) staining; also recorded: mainly localized at lysosomal and endoplasmic reticulum"},
      {"measurement": "Quantum yields (1O2), singlet oxygen yield", "setting": "[11]", "value": 0.76},
      {"measurement": "DNA ladder, photosensitizer alone", "setting": "HeLa cells [3]", "value": "No DNA ladder was observed"},
      {"measurement": "DNA ladder at early times", "setting": "HeLa cells [3]", "value": "No obvious DNA ladder was detected"},
      {"measurement": "DNA ladder after photosensitization", "setting": "HeLa cells [3]", "value": "characteristic DNA ladder observed"},
      {"measurement": "toxicity in animals", "setting": "[1]", "value": "low toxicity"},
      {"measurement": "photopotentiation factor (LD50 dark / LD50 with 24 J cm−2 red light)", "setting": "HeLa cells [4]", "value": 10, "unit": "fold"},
      {"measurement": "induction of apoptosis", "setting": "HeLa cells [5]", "value": "induced apoptosis"},
      {"measurement": "hypoploid cell population", "setting": "HeLa cells [5]; LD90", "value": "appearance of hypoploid cell population"},
      {"measurement": "photopotentiation factor", "setting": "[12]", "value": 10},
      {"measurement": "LD50 in the dark", "setting": "HeLa cells [6]", "value": "about 20 μM"},
      {"measurement": "Relative quantum yields (O2−)", "setting": "[7]", "value": 1},
      {"measurement": "log6 at first band λmax", "setting": "[9]", "value": 4.06},
      {"measurement": "log6 at second band λmax", "setting": "[9]", "value": 3.70},
      {"measurement": "log6 at third band λmax", "setting": "[9]", "value": 3.52},
      {"measurement": "λmax (nm), first band", "setting": "[9]", "value": 466, "unit": "nm"},
      {"measurement": "λmax (nm), second band", "setting": "[9]", "value": 548, "unit": "nm"},
      {"measurement": "λmax (nm), third band", "setting": "[9]", "value": 580, "unit": "nm"},
      {"measurement": "distribution ratio [Sen/g cells]/[Sen/ml medium]", "setting": "HeLa cells [10]", "value": "49.1±2.2"}
    ]}
  ]
}
